# Experimental data from patent publication US6472348B1, “Pyridone derivatives and herbicides” (Kumiai Chemical Industry Co., Ltd., priority 1996, dated 2002).
# Legend:
# Type in all cases: in vivo
# rice flatsedge (Ci) [1] = test: Test Example 2: herbicidal effects by upland field soil treatment; settings: 100 g of the active ingredient per 10 ares, evaluated on the 21st day after application;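 note: grade of growth control; 5 = at least 90%; 4 = 70 to 90%; 3 = 50 to 70%; 2 = 30 to 50%; 1 = 10 to 30%; 0 = under 10%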
# Excerpt: (§1) (Test on Herbicidal Effects by Upland Field Soil Treatment)
# pale smartweed (Po) [2] = test: as above; settings: 100 g of the active ingredient per 10 ares, evaluated on the 21st day after application
# Excerpt: as §1
# barnyardgrass (Ec) [3] = test: as above; settings: 100 g of the active ingredient per 10 ares, evaluated on the 21st day after application
# Excerpt: as §1
# Digitaria ciliaris (Di) = test: as above; settings: 100 g of the active ingredient per 10 ares, evaluated on the 21st day after application;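 note: grade of growth control; 5 = at least 90%; 4 = 70 to 90%; 3 = 50 to 70%; 2 = 30 to 50%; 1 = 10 to 30%; 0 = under 10%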
# Excerpt: as §1
# slender amaranth (Am) [4] = test: as above; settings: 100 g of the active ingredient per 10 ares, evaluated on the 21st day after application
# Excerpt: as §1
# [5] = test system: common lambsquarters (Ch); test: as above; settings: 100 g of the active ingredient per 10 ares, evaluated on the 21st day after application
# Excerpt: as §1
# Diaitaria ciliaris (Di) [6] = test: Test Example 3: herbicidal effects by upland field foliage treatment; design: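 grade of growth control; 5 = at least 90%; 4 = 70 to 90%; 3 = 50 to 70%; 2 = 30 to 50%; 1 = 10 to 30%; 0 = under 10%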; settings: 100 g active ingredient per 10 ares, evaluated 14th day after treatment
# In short: (§2)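 Scoring used a standard effect scale on the 14th day post-treatment, with plants held in a greenhouse throughout. Foliar application was made to weeds raised from seed in sand-filled pots for 2 weeks.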
# rice flatsedge (Ci) [7] = test: as above; design: scale not given here; settings: 100 g active ingredient per 10 ares, evaluated 14th day after treatment
# In short: as §2
# pale smartweed (Po) [8] = test: as above; design: scale not given here; settings: 100 g active ingredient per 10 ares, evaluated 14th day after treatment
# In short: as §2
# barnyardgrass (Ec) [9] = test: as above; design: scale not given here; settings: 100 g active ingredient per 10 ares, evaluated 14th day after treatment
# In short: as §2
# slender amaranth (Am) [10] = test: as above; design: scale not given here; settings: 100 g active ingredient per 10 ares, evaluated 14th day after treatment
# In short: as §2
# [11] = test system: common lambsquarters (Ch); test: as above; design: scale not given here; settings: 100 g active ingredient per 10 ares, evaluated 14th day after treatment
# In short: as §2
# bulrush (Sc) = test: Test Example 1: herbicidal effects by paddy field soil treatment; settings: 100 g of the active ingredient per 10 ares, 21st day after the application, index 0-5 of Table 47;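 note: grade of growth control; 5 = at least 90%; 4 = 70 to 90%; 3 = 50 to 70%; 2 = 30 to 50%; 1 = 10 to 30%; 0 = under 10%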
# In short: (§3)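 Flooded paddy-soil pots (3 cm water) sown after puddling/leveling; treatment 100 g a.i./10 ares; greenhouse culture; herbicidal effect rated visually on a scoring scale at 21 d post-application.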
# barnyardgrass (Ec) [12] = test: as above; settings: 100 g of the active ingredient per 10 ares, 21st day after the application, index 0-5 of Table 47
# In short: as §3
# monochoria (Mo) = test: as above; settings: 100 g of the active ingredient per 10 ares, 21st day after the application, index 0-5 of Table 47;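 note: grade of growth control; 5 = at least 90%; 4 = 70 to 90%; 3 = 50 to 70%; 2 = 30 to 50%; 1 = 10 to 30%; 0 = under 10%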
# In short: as §3
# green foxtail (Se) [13] = test: Test Example 4: crop plant selectivity by upland field soil treatment (cotton), herbicidal effects; design: scale not given here; settings: evaluated 21st day after application
# In short: (§4)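 Upland soil-treatment selectivity test: scoring on day 21 post-application in a greenhouse, rating crop phytotoxicity on cotton and herbicidal effect on co-sown weeds. Seeds were sown in sand-filled pots and covered with soil before treatment.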
# pale smartweed (Po) [14] = test: as above; design: scale not given here; settings: evaluated 21st day after application
# In short: as §4
# China jute (Ab) [15] = test: as above; design: scale not given here; settings: evaluated 21st day after application
# In short: as §4
# slender amaranth (Am) [16] = test: as above; design: scale not given here; settings: evaluated 21st day after application
# In short: as §4
# [17] = test system: common lambsquarters (Ch); test: as above; design: scale not given here; settings: evaluated 21st day after application
# In short: as §4
# Diaitaria ciliaris (Di) [18] = test: as above; settings: evaluated 21st day after application
# Protocol: (§5) (Test on Crop Plant Selectivity by Upland Field Soil Treatment)
# In a plastic pot (surface area: 600 cm^2) filled with sand, cotton (Go), Diaitaria ciliaris (Di), green foxtail (Se), pale smartweed (Po), slender amaranth (Am), common lambsquarters (Ch) and China jute (Ab) were sown and covered with soil. […] The plants were then cultured in a green house, and the evaluation of the herbicidal effects and phytotoxicity was conducted on the 21st day after the application in accordance with the standards as identified in Table 47. Symbol—represents “not tested”.
# green foxtail (Se) [19] = test: Test Example 6: crop plant selectivity by upland field soil treatment (soybean), herbicidal effects; design: scale not given here; settings: dose 1.6 g ai/10a, 21st day after application
# In short: (§6)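 Greenhouse pot test with soil-applied compound after sowing soybean and weeds in sand; effects graded on day 21 after application.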
# pale smartweed (Po) [20] = test: as above; design: scale not given here; settings: dose 1.6 g ai/10a, 21st day after application
# In short: as §6
# China jute (Ab) [21] = test: as above; design: scale not given here; settings: dose 1.6 g ai/10a, 21st day after application
# In short: as §6
# slender amaranth (Am) [22] = test: as above; design: scale not given here; settings: dose 1.6 g ai/10a, 21st day after application
# In short: as §6
# [23] = test system: common lambsquarters (Ch); test: as above; design: scale not given here; settings: dose 1.6 g ai/10a, 21st day after application
# In short: as §6
# cotton (Go) = test: Test Example 4: crop plant selectivity by upland field soil treatment (cotton), phytotoxicity; design: scale not given here; settings: evaluated 21st day after application
# In short: as §4
# Diaitaria ciliaris (Di) [24] = test: Test Example 6: crop plant selectivity by upland field soil treatment (soybean), herbicidal effects; settings: dose 1.6 g ai/10a, 21st day after application
# Protocol: as §5
# (§7) In a plastic pot (surface area: 600 cm^2) filled with sand, soybean (Gl), Diaitaria ciliaris (Di), green foxtail (Se), Johnsongrass (So), pale smartweed (Po), slender amaranth (Am), common lambsquarters (Ch) and China jute (Ab) were sown and covered with soil. […] The plants were then cultured in a green house, and the evaluation of the herbicidal effects and phytotoxicity was conducted on the 21st day after the application in accordance with the standards as identified in Table 47. Symbol—represents “not tested”.
# Johnsongrass (So) = test: as above; settings: dose 1.6 g ai/10a, 21st day after application
# Protocol: as §5, §7
# soybean (Gl) = test: Test Example 6: crop plant selectivity by upland field soil treatment (soybean), phytotoxicity; design: scale not given here; settings: dose 1.6 g ai/10a, 21st day after application
# In short: as §6
structure (smiles),measurement,setting,value
CCc1cc2c(-c3cn(C)c(C(F)(F)F)cc3=O)c(F)cc(Cl)c2o1 [Compound 9-2],Herbicidal effects Ci,rice flatsedge (Ci) [1],5
same,Herbicidal effects Po,pale smartweed (Po) [2],5
same,Herbicidal effects Ec,barnyardgrass (Ec) [3],5
same,Herbicidal effects Di,Digitaria ciliaris (Di),5
same,Herbicidal effects Am,slender amaranth (Am) [4],5
same,Herbicidal effects Ch,[5],5
same,Herbicidal effects Di,Diaitaria ciliaris (Di) [6],5
same,Herbicidal effects Ci,rice flatsedge (Ci) [7],5
same,Herbicidal effects Po,pale smartweed (Po) [8],5
same,Herbicidal effects Ec,barnyardgrass (Ec) [9],5
same,Herbicidal effects Am,slender amaranth (Am) [10],5
same,Herbicidal effects Ch,[11],5
same,Herbicidal effects Sc,bulrush (Sc),5
same,Herbicidal effects Ec,barnyardgrass (Ec) [12],5
same,Herbicidal effects Mo,monochoria (Mo),5
same,Herbicidal effects Se,green foxtail (Se) [13]; dose 1.6 g ai/10 a,5
same,Herbicidal effects Se,green foxtail (Se) [13]; dose 6.3 g ai/10 a,5
same,Herbicidal effects Po,pale smartweed (Po) [14]; dose 1.6 g ai/10 a,5
same,Herbicidal effects Po,pale smartweed (Po) [14]; dose 6.3 g ai/10 a,5
same,Herbicidal effects Ab,China jute (Ab) [15]; dose 1.6 g ai/10 a,5
same,Herbicidal effects Ab,China jute (Ab) [15]; dose 6.3 g ai/10 a,5
same,Herbicidal effects Am,slender amaranth (Am) [16]; dose 1.6 g ai/10 a,5
same,Herbicidal effects Am,slender amaranth (Am) [16]; dose 6.3 g ai/10 a,5
same,Herbicidal effects Ch,[17]; dose 1.6 g ai/10 a,5
same,Herbicidal effects Ch,[17]; dose 6.3 g ai/10 a,5
same,Herbicidal effects Di,Diaitaria ciliaris (Di) [18]; dose 1.6 g ai/10 a,5
same,Herbicidal effects Di,Diaitaria ciliaris (Di) [18]; dose 6.3 g ai/10 a,5
same,Herbicidal effects Se,green foxtail (Se) [19],5
same,Herbicidal effects Po,pale smartweed (Po) [20],5
same,Herbicidal effects Ab,China jute (Ab) [21],5
same,Herbicidal effects Am,slender amaranth (Am) [22],5
same,Herbicidal effects Ch,[23],5
same,Phytotoxicity Go,cotton (Go); dose 1.6 g ai/10 a,0
same,Phytotoxicity Go,cotton (Go); dose 6.3 g ai/10 a,0
same,Herbicidal effects Di,Diaitaria ciliaris (Di) [24],5
same,Herbicidal effects So,Johnsongrass (So),5
same,Phytotoxicity Gl,soybean (Gl),1
